Assay results as given in ChEMBL document CHEMBL5365472, “DDD-028: A potent, neuroprotective, non-opioid compound for the treatment of diabetic neuropathy” (Bioorg Med Chem Lett, 2023).
Calls of active or inactive are those of the source.

What was measured:
Type in all cases: functional, organism-based
Rattus norvegicus [1] = assay: Analgesic activity in rat acute pain model at 3 mg/kg by hot plate test
Rattus norvegicus [2] = assay: Analgesic activity in rat acute pain model at 3 mg/kg by tail flick test
Rattus norvegicus [3] = assay: Anti-allodynic activity in rat model of STZ induced diabetic neuropathy assessed as reduction in mechanical hyperalgesia by measuring increase in weight bearing at 1 mg/kg, po measured after 30 min by paw pressure test
Rattus norvegicus [4] = assay: Anti-allodynic activity in rat model of STZ induced diabetic neuropathy assessed as reduction in mechanical allodynia by measuring increase in paw withdrawal threshold at 1 mg/kg, po measured after 30 min by electronic von frey test
Mus musculus = assay: Anti-allodynic activity in mouse model of CCI induced neuropathic pain assessed as increase in paw withdrawal threshold at 3 mg/kg, po by static von frey test
Rattus norvegicus [5] = assay: Anti-allodynic activity in rat model of STZ induced diabetic neuropathy assessed as reduction in mechanical allodynia by measuring increase in paw withdrawal threshold at 25 mg/kg, po measured for 90 min by electronic von frey test
Rattus norvegicus [6] = assay: Anti-allodynic activity in rat model of STZ induced diabetic neuropathy assessed as reduction in mechanical hyperalgesia by measuring increase in weight bearing at 25 mg/kg, po measured after 90 min by paw pressure test
Rattus norvegicus [7] = assay: Analgesic activity in rat acute pain model at 1 to 10 mg/kg by hot plate test; settings: dose 1-10 mg/kg
Rattus norvegicus [8] = assay: Analgesic activity in rat acute pain model at 1 to 10 mg/kg by tail flick test; settings: dose 1-10 mg/kg

SMILES: CN1CC[C@]23c4c5ccc(O)c4O[C@H]2[C@@H](O)C=C[C@H]3[C@H]1C5
- Activity (Rattus norvegicus [1]): Active
- Activity (Rattus norvegicus [2]): Active

SMILES: CN1CCc2c(c3cccc4c3n2CCc2ccccc2-4)C1
- Activity (Rattus norvegicus [3]): Active
- Activity (Rattus norvegicus [4]): Active
- Activity (Mus musculus): Active
- Activity (Rattus norvegicus [5]): Active
- Activity (Rattus norvegicus [6]): Active
- Activity (Rattus norvegicus [7]): inactive
- Activity (Rattus norvegicus [8]): inactive
